Test results from patent US10392368B2, “Pyrazolo and triazolo bicyclic compounds as JAK kinase inhibitors” (THERAVANCE BIOPHARMA R&D IP, LLC, priority 2017, dated 2019).

Tests used:
[1] = biological target: T1, JAK2 (Homo sapiens, UniProt O60674); experiment: Biochemical JAK2 kinase assay (LanthaScreen); conditions: read-out: JAK 2 (pKi) (converted)
T1 construct: GST; purchased Life Technologies
Procedure, shortened: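 GST-tagged recombinant JAK2 pre-incubated 1 h at ambient temperature with compound and GFP-STAT1 peptide in HEPES pH 7.5/MgCl2 buffer, then ATP added for a 1 h reaction with 1% DMSO. TR-FRET read after EDTA and Tb-anti-pSTAT1 (pTyr701) addition; IC50 from 4-parameter fit, converted to pKi by Cheng-Prusoff.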

[2] = test system: IL-2 induced pSTAT5 in thymus; experiment: Systemic target engagement: murine model of IL-2 induced pSTAT5 induction in thymus; assay type: in vivo, mouse
Text: IL-2 is an important cytokine underlying the pathophysiology of gastro-intestinal diseases such as […] bowel disease (IBD; Guan and Zhang. Mediators Inflamm, 2017; 4810258). IL-2 binds to cell surface receptors activating members of the Janus family of kinases (JAK), specifically JAK3, which then phosphorylates STAT5 and subsequently activates further transcription pathways. In this model, a dose of IL-2 was delivered systemically to mice to induce the phosphorylation of STAT5 (pSTAT5) which was then measured as the endpoint.
Adult male Balb/c mice from Harlan were used in the assay. Animals were administered test compound via oral gavage (PO, 10 or 30 mg/kg for single dose studies; 10-60 mg/kg for dose response studies) on the afternoon of the day prior to study and then in the morning on the day of study. Two hours after the second PO dose administration, mice were injected intraperitoneally (i.p.) with 100 μl of an appropriate IL-2 dose (for a total of 1-5 μg/mouse depending upon IL-2 batch; R&D Systems). 90-120 minutes after IL-2 insult, thymus samples were harvested.

[3] = biological target: T2, Tyk2 (Homo sapiens, UniProt P29597); experiment: Biochemical Tyk2 kinase assay (LanthaScreen); conditions: read-out: Tyk 2 (pKi) (converted)
T2 construct: GST; purchased Life Technologies
Procedure, shortened: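 TR-FRET readout (520/495 nm) using Tb-labelled pTyr701 antibody after EDTA stop, following 1 h ATP-started phosphorylation of GFP-STAT1 by recombinant GST-JAK. Compounds preincubated 1 h with enzyme and substrate; pIC50 from 4-parameter fit, Cheng-Prusoff gives pKi.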

[4] = test system: oxazolone-induced colitis; experiment: Mouse model of oxazolone-induced colitis; assay type: in vivo; conditions: 3 mg/kg (PO, BID)
Procedure, shortened: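 BALB/c mice skin-sensitized with 4% oxazolone, then challenged intrarectally seven days later with 50 μL 0.8% oxazolone in 1:1 ethanol:water. Oral dosing (QD, BID or TID) or vehicle started one day before challenge. Blinded scoring two days post-challenge: stool consistency plus gross bleeding (0/2/4 each), summed as combined stool score.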

[5] = Colon and plasma mouse pharmacokinetics; assay type: in vivo; conditions: mouse, colon tissue / plasma; male Balb/c mice, 10 mg/kg PO; 0.5, 2 and 6 hours; read-out: colon to plasma ratio (colon AUC to plasma AUC)
Procedure: 6 male Balb/c mice were administered 10 mg/kg of compound in 1% HPMC+0.1% Tween-80 by PO administration. At 0.5, 2 and 6 hours after dose administration, animals were anesthetized, and terminal blood samples were collected by cardiac puncture, followed by collection of colon contents and colon tissue.
Blood samples were collected into K2EDTA and stored on wet ice until processed to plasma by centrifugation (12000 rpm at 4° C.). Plasma samples were transferred to cluster tubes and placed on dry ice prior to freezer storage. The colon contents from each animal were collected at each terminal blood collection time point. The colon tissues were flushed with saline and patted dry. The colon and colon content tissues were homogenized using sterile water containing 0.1% formic acid 9:1 (water:tissue, v/w). The homogenized tissues and colon contents were transferred to cluster tubes and placed on dry ice prior to freezer storage. All samples were analyzed using LC/MS/MS against analytical standards.
The composite pharmacokinetic parameters of the compounds were determined by non-compartmental analysis using Phoenix WinNonlin Version 6 (Certara, St. Louis, Mo.) and using mean values from 2 animals/time point. For plasma concentrations below the quantification limit (BQL), the lowest concentration measurable or the BLOQ (below limit of quantification) was used.
A colon to plasma ratio was determined as the ratio of the colon AUC to the plasma AUC.

T2 sequence (P29597 whole entry): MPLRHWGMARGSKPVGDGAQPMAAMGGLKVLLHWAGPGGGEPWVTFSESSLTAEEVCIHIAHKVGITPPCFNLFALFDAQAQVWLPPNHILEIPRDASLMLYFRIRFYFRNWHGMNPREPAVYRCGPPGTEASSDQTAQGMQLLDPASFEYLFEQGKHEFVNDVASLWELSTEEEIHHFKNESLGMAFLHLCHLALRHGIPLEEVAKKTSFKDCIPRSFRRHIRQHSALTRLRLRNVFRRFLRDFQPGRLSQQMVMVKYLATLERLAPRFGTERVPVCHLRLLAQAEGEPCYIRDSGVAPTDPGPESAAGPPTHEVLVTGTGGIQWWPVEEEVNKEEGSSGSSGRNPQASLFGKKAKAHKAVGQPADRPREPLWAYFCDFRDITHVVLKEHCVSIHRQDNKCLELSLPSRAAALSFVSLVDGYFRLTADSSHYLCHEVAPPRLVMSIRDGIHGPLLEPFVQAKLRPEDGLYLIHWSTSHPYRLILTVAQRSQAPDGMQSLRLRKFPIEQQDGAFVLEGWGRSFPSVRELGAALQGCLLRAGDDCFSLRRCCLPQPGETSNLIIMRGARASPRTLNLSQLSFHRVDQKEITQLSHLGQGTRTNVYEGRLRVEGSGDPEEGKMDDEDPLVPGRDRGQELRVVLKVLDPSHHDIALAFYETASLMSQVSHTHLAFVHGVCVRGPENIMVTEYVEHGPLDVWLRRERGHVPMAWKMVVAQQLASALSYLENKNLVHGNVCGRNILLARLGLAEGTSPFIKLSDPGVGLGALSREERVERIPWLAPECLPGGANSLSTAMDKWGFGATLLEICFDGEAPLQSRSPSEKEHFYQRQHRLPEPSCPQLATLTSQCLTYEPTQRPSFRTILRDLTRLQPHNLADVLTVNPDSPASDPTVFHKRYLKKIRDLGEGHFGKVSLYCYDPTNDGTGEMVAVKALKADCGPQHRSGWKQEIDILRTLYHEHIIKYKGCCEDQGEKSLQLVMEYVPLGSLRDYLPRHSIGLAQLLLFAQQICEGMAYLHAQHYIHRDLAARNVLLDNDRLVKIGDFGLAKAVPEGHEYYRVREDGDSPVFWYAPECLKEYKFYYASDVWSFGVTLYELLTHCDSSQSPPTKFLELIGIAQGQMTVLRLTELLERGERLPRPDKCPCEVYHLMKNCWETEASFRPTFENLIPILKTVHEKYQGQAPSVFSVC
T1 sequence (O60674 whole entry): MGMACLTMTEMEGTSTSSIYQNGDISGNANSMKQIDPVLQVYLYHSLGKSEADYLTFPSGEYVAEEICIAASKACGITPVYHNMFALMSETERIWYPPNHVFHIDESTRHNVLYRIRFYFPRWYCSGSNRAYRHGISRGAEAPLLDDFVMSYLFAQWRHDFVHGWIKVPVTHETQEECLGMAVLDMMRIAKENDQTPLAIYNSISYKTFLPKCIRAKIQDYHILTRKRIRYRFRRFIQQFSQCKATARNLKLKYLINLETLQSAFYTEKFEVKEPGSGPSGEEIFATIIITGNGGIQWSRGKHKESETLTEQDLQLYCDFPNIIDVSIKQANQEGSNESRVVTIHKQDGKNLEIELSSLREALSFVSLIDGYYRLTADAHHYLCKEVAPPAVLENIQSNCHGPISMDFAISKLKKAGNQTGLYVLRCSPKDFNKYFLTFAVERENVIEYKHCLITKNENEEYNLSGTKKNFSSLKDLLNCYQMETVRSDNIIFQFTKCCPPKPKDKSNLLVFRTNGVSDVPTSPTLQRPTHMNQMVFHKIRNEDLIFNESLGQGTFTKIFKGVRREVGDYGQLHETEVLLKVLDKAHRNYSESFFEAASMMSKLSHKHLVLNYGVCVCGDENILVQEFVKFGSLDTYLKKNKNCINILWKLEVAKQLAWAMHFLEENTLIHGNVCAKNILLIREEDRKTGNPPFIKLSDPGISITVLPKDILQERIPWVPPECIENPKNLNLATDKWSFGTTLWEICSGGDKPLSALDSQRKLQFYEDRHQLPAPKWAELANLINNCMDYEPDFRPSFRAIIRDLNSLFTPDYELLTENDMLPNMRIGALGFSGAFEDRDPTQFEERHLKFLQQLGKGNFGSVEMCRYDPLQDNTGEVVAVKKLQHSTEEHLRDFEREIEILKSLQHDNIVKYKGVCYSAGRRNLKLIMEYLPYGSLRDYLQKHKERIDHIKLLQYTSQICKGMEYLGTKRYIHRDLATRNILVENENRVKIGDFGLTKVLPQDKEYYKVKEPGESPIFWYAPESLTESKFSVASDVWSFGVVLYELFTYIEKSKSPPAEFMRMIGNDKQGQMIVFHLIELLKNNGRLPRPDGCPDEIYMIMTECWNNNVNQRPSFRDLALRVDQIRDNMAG

| Structure (SMILES) | Ki [1] [nM] | inhibition of IL-2 induced pSTAT5 in thymus compared to vehicle ([2]; PO, 10, 30, 60 and 100 mg/kg) | Ki [3] [nM] | combined stool score endpoint as compared with vehicle treated animals [4] | Kp [5] | inhibition of IL-2 induced pSTAT5 in thymus compared to vehicle ([2]; PO, 10, 30 and 60 mg/kg) | inhibition of IL-2 induced pSTAT5 in thymus compared to vehicle ([2]; PO, 30 and 100 mg/kg) | inhibition of IL-2 induced pSTAT5 in thymus compared to vehicle ([2]; PO, 30 mg/kg) | inhibition of IL-2 induced pSTAT5 in thymus compared to vehicle ([2]; PO, 10 mg/kg) |
| --- | --- | --- | --- | --- | --- | --- | --- | --- | --- |
| CN(C)C/C=C/C(=O)N1CC(COc2cc(-c3ccc(O)cc3)cc3[nH]ncc23)C1 [Compound 1, (E)-4-(dimethylamino)-1-(3-(((6-(4-hydroxyphenyl)-1H-indazol-4-yl)oxy)methyl)azetidin-1-yl)but-2-en-1-one] | 10 to 100 | no significant inhibition | > 100 | statistically significant decrease | > 1250 | – | – | – | – |
| C=CC(=O)N1CC[C@H](Oc2cc(-c3ccc(O)c(Cl)c3)cc3[nH]ncc23)C1 [Compound 2, (S)-1-(3-((6-(3-chloro-4-hydroxyphenyl)-1H-indazol-4-yl)oxy)pyrrolidin-1-yl)prop-2-en-1-one] | > 100 | – | > 100 | statistically significant decrease | > 1250 | no significant inhibition | – | – | – |
| CN(C)C/C=C/C(=O)N1CC(C(C)(C)Oc2cc(-c3ccc(O)c(Cl)c3)cc3[nH]ncc23)C1 [Compound 3, (E)-1-(3-(2-((6-(3-chloro-4-hydroxyphenyl)-1H-indazol-4-yl)oxy)propan-2-yl)azetidin-1-yl)-4-(dimethylamino)but-2-en-1-one] | > 100 | – | > 100 | statistically significant decrease | > 1250 | – | no significant inhibition | – | – |
| C=CC(=O)N1CC(COc2nc(-c3ccc(O)cc3)nc3[nH]ncc23)C1 [Compound 4, 1-(3-(((6-(4-hydroxyphenyl)-1H-pyrazolo[3,4-d]pyrimidin-4-yl)oxy)methyl)azetidin-1-yl)prop-2-en-1-one] | > 100 | – | > 100 | statistically significant decrease | > 1250 | – | – | no significant inhibition | – |
| CN(C)C/C=C/C(=O)N1CC(COc2cc(-c3ccc(O)c(F)c3)cc3[nH]ncc23)C1 [Compound 5, (E)-4-(dimethylamino)-1-(3-(((6-(3-fluoro-4-hydroxyphenyl)-1H-indazol-4-yl)oxy)methyl)azetidin-1-yl)but-2-en-1-one] | 10 to 100 | – | > 100 | statistically significant decrease | > 200 | – | – | no significant inhibition | – |
| C=CC(=O)N1CCO[C@@H](C(=O)Nc2cc(-c3ccc(O)cc3)cc3[nH]ncc23)C1 [Compound 6, (R)-4-acryloyl-N-(6-(4-hydroxyphenyl)-1H-indazol-4-yl)morpholine-2-carboxamide] | 10 to 100 | – | > 100 | statistically significant decrease | > 1250 | – | – | – | no significant inhibition |
| C=CC(=O)N1CC[C@H](COc2cc(-c3ccc(O)cc3)cc3[nH]ncc23)C1 [Compound 7, (S)-1-(3-(((6-(4-hydroxyphenyl)-1H-indazol-4-yl)oxy)methyl)pyrrolidin-1-yl)prop-2-en-1-one] | 10 to 100 | – | > 100 | statistically significant decrease | > 1250 | – | – | – | no significant inhibition |
| CN(C)C/C=C/C(=O)N1CC(C#N)(COc2cc(-c3ccc(O)c(F)c3)cc3[nH]ncc23)C1 [Compound 8, (E)-1-(4-(dimethylamino)but-2-enoyl)-3-(((6-(3-fluoro-4-hydroxyphenyl)-1Hindazol-4-yl)oxy)methyl)azetidine-3-carbonitrile] | 10 to 100 | – | > 100 | statistically significant decrease | > 1250 | – | – | no significant inhibition | – |
| CN(C)C/C=C/C(=O)N1CCC(C)(Oc2cc(-c3ccc(O)cc3)cc3[nH]ncc23)CC1 [Compound 9, (E)-4-(dimethylamino)-1-(4-((6-(4-hydroxyphenyl)-1H-indazol-4-yl)oxy)-4-methylpiperidin-1-yl)but-2-en-1-one] | – | – | – | – | > 200 | – | – | – | – |
| C=CC(=O)N1CC(C(C)(C)Oc2cc(-c3ccc(O)cc3)nc3[nH]ncc23)C1 [Compound 20, 1-(3-(2-((6-(4-hydroxyphenyl)-1H-pyrazolo[3,4-b]pyridin-4-yl)oxy)propan-2-yl)azetidin-1-yl)prop-2-en-1-one] | > 100 | – | > 100 | – | > 200 | – | – | – | – |
| C=CC(=O)N1CC(C)(COc2nc(-c3ccc(O)c(F)c3)nc3[nH]ncc23)C1 [Compound 21, 1-(3-(((6-(3-fluoro-4-hydroxyphenyl)-1H-pyrazolo[3,4-d]pyrimidin-4-yl)oxy)methyl)-3-methylazetidin-1-yl)prop-2-en-1-one] | > 100 | – | > 100 | statistically significant decrease | > 1250 | – | – | – | – |
| C=CC(=O)N1CC(CC)(COc2cc(-c3ccc(O)cc3)nc3[nH]ncc23)C1 [Compound 22, 1-(3-ethyl-3-(((6-(4-hydroxyphenyl)-1H-pyrazolo[3,4-b]pyridin-4-yl)oxy)methyl)azetidin-1-yl)prop-2-en-1-one] | > 100 | – | > 100 | – | > 1250 | – | – | – | – |
